According to PMC10743653, “Combined In Silico and In Vitro Analyses to Assess the Anticancer Potential of Thiazolidinedione–Thiosemicarbazone Hybrid Molecules” (International Journal of Molecular Sciences, 2023):

Key:
T98G cells = assay: MTT assay, T98G; format: cell-based, human; settings: for IC50: Homo sapiens, T98G, MTT, 24 h treatment, mean ± SD; for SI (selectivity index): IC50 CCD 841 CoTr divided by IC50 T98G
Procedure: (§1) The effects of TZD–TSCs 2–5 on the cellular viability of a panel of cell lines were investigated through an 3-(4,5-dimethylthiazol-2-yl)-2,5-diphenyl-2H-tetrazolium bromide (MTT) assay, following a 24 h treatment with the compounds. The panel consisted of three solid tumor cells: T98G (glioblastoma multiforme), HepG2 (hepatocellular carcinoma, epithelial), and HT29 (colon adenocarcinoma, epithelial), as well as noncancerous cells CCD 841 CoTr (normal colon, epithelial).
(§2) Primary single dose screenings of TZD–TSCs 2–5 were performed at a concentration of 200 μg/mL, and those that elicited a greater than 80% inhibition of cell proliferation were analyzed at several concentrations, to find their half-maximal inhibitory concentration (IC50). The IC50 values, reported as the mean ± SD in Table 2, indicate the concentration of the tested compound that inhibits the growth/viability of the cancer cell population by 50%. In this specific case of an MTT assay, which measures the activity of mitochondrial dehydrogenases (as an indicator of cell viability), the IC50 values stand for the concentration that inhibits the metabolic activity of cells by 50%.
(§3) Human colon adenocarcinoma cells, HT29 (ATCC no. HTB-38), derived from a grade I tumor, were cultured in roswell park memorial institute Medium (RPMI) 1640 medium, supplemented with 10% fetal calf serum (FCS) (GibcoTM, Paisley, UK) and antibiotics (100 U/mL penicillin and 100 μg/mL streptomycin) (Sigma, St. Louis, MO), at 37 °C in a humidified atmosphere with 5% CO2. Human normal colon epithelial cells, CCD 841 CoTr (ATCC no. CRL-1807), were cultured in RPMI 1640 + dulbecco’s modified eagle medium (DMEM) (1:1) medium (Sigma, St. Louis, MO), supplemented with 10% FCS and antibiotics, at 34 °C in a 5% CO2/95% air atmosphere. Human glioblastoma T98G cells were cultured in Dulbecco’s Modified Eagle’s Medium (DMEM) (Sigma Aldrich, St. Louis, MO, USA), supplemented with 10% fetal bovine serum (FBS), penicillin (100 U/mL), and streptomycin (100 μg/mL). Human hepatocellular carcinoma cells, HepG2, were maintained in Eagle’s Minimum Essential Medium, supplemented with 10% FBS, penicillin (100 U/mL), and streptomycin (100 μg/mL).
(§4) After 24 h of incubation of the cells with the tested compounds in 100 μL of culture medium, MTT solution (5 mg/mL, 25 μL/well) was added and incubated for an additional 3 h. The purple crystals of formazan which formed in the medium were solubilized overnight in 10% sodium dodecyl sulphate (SDS) in a 0.01 M HCl mixture. The product was quantified spectrophotometrically by measuring its absorbance at 570 nm using an Emax Microplate Reader (Molecular Devices Corporation, Menlo Park, CA, USA).

HepG2 cells [1] = assay: MTT assay, HepG2; format: cell-based, human; settings: for IC50: Homo sapiens, HepG2, MTT, 24 h treatment, mean ± SD; for SI (selectivity index): IC50 CCD 841 CoTr divided by IC50 HepG2
Procedure: as §1, §2, §3, §4

HT29 cells [2] = assay: MTT assay, HT29; format: cell-based, human; settings: for IC50: Homo sapiens, HT-29, HT29, MTT, 24 h treatment, mean ± SD; for SI (selectivity index): IC50 CCD 841 CoTr divided by IC50 HT29
Procedure: as §1, §2, §3, §4

CCD 841 CoTr cells [3] = assay: MTT assay, normal colon epithelial cells; format: cell-based; settings: Homo sapiens, CCD 841 CoTr (noncancerous), 24 h treatment, mean ± SD
Procedure: as §1, §2, §3, §4

[4] = system: human red blood cells (RBCs); assay: In vitro hemolysis assay; format: cell-based; settings: 30 min, 37 °C, at IC50 values for HepG2
Procedure: The hematologic toxicity of the most cytotoxic TZD–TSCs, compounds 2 and 3, was tested via in vitro hemolysis assay, following a 30 min treatment of human RBCs at 37 °C with these compounds.
Human red blood cell (RBC) concentrate was obtained from the Regional Blood Donation and Transfusion Centre (Lublin, Poland). The RBC concentrate (5 mL) was washed three times with sterile PBS and centrifuged at 500 g for 3 minutes. The obtained pellet was suspended in sterile PBS to obtain a 2% suspension, which was subsequently mixed with 1 mL of solution of TZD–TSCs 2 and 3. […] The mixtures were incubated at 37 °C for 30 min and, subsequently, centrifuged at 1400× g for 10 min. The amount of free hemoglobin in the supernatants was measured spectrophotometrically at 405 nm. Negative and positive controls were performed by incubating RBCs with sterile PBS and 0.1% Triton-X, respectively. Each experiment was run in triplicate.

CCD 841 CoTr cells [5] = assay: Nitric oxide measurement (Griess), CCD 841 CoTr; format: cell-based, human; settings: 200 μg/mL
Procedure: (§5) Nitrate, i.e., a stable end product of NO, was measured in culture supernatants with a spectrophotometric method based on the Griess reaction. Culture supernatants were collected from the cell cultures treated with specific concentrations of the tested compounds (25, 75, 150, and 200 μg/mL, respectively). Briefly, 100 μL of the culture supernatant was placed in 96-well flat-bottomed plates in triplicate and incubated with 100 μL of Griess reagent (1% sulfanilamide/0.1% N-(1-naphthyl)ethylenediamine dihydrochloride) in 3% H3PO4 at room temperature for 10 min. The optical density was measured at 550 nm using a microplate reader. A standard curve was prepared using 0.5–25 μM sodium nitrite (NaNO2) for calibration.

HT29 cells [6] = assay: Nitric oxide measurement (Griess), HT29; format: cell-based, human; settings: HT29, 200 μg/mL
Procedure: as §5

bacteria = system: bacteria; parameters: method as in PMID 29701728; settings: in vitro antibacterial potency; cited from earlier work
HepG2 cells [7] = assay: Cell cycle analysis (image cytometry, DAPI); format: cell-based, human; settings: 24 h at IC50 concentration (2.97 μM); control 6.02 ± 0.21%; mean ± SD
Procedure: HDAC inhibitors, in combination therapy with PPARγ agonists, exert synergistic/additive cytotoxic effects on cancer cells, resulting in proliferation arrest and increased cancerous cell apoptosis.
HepG2 cells were seeded on 6-well culture plates (Corning Inc., NY, USA) at the density of 1 × 10^5 cells/mL and cultured in the respective medium at 37 °C in a humidified atmosphere of 5% CO2. When the cells reached approximately 80–90% confluence, they were treated with 3, at a concentration of IC50, for 24 h. Subsequently, the cells were detached with trypsine, suspended in 250 μL of lysis buffer (Solution 10), supplemented with DAPI (10 μg/mL), and incubated for 5 min at 37 °C. Next, stabilization buffer (Solution 11) was added and the obtained cell suspension was applied on a NC slide and analyzed using a NucleoCounter NC-3000 Image Cytometer equipped with NucleoView software (https://chemometec.com/software/nucleoview/ (accessed on 20 November 2023). Experiments were repeated three times and the measurements in each experiment were run in duplicate.

| Compound | IC50 (T98G cells) [µM] | SI (selectivity index) (T98G cells) | IC50 (HepG2 cells [1]) [µM] | SI (selectivity index) (HepG2 cells [1]) | IC50 (HT29 cells [2]) [µM] | SI (selectivity index) (HT29 cells [2]) | IC50 (CCD 841 CoTr cells [3]) [µM] | Hemolytic activity (free hemoglobin released) [4] | NO production, [NO2^−] (CCD 841 CoTr cells [5]) [µM] | NO production, [NO2^−] (HT29 cells [6]) [µM] | Minimal inhibitory concentrations (MICs) (bacteria) [µM] | Percentage of HepG2 cells in sub-G1 phase (HepG2 cells [7]) [%] |
| --- | --- | --- | --- | --- | --- | --- | --- | --- | --- | --- | --- | --- |
| O=C(C=C1SC(=O)NC1=O)Oc1ccccc1C=NNC(=S)Nc1ccccc1Cl [TZD–TSC 2] | 26.8 ± 1.54 | 1.66 | 10.4 ± 0.72 | 4.30 | 43.9 ± 1.74 | 1.02 | 44.6 ± 2.91 | no specific hemolytic activity | 0.566 | 0.272 | 8.48 to 16.94 |  |
| O=C(C=C1SC(=O)NC1=O)Oc1ccccc1C=NNC(=S)Nc1cccc(Cl)c1 [TZD–TSC 3] | 28.3 ± 2.21 | 3.54 | 2.97 ± 0.39 | 33.80 | 78.3 ± 5.47 | 1.28 | 100 ± 4.82 | no specific hemolytic activity | 0.492 | 0.201 | 8.48 to 16.94 | 40.36 ± 3.11 |
